The source of these data is article PMC5104948, “Regulation and Essentiality of the StAR-related Lipid Transfer (START) Domain-containing Phospholipid Transfer Protein PFA0210c in Malaria Parasites” (The Journal of Biological Chemistry, 2016).

Assay [1] concerns the target T1, PFA0210c (full-length, FL) (Plasmodium falciparum, UniProt Q8I298).
T1 construct: gene PF3D7_0104200; residues 144-466 (N-terminal region omitted, START domain plus whole C-terminal extension); N-terminal MBP and C-terminal His6 kept; E. coli BL21(DE3); monomeric SEC fractions; strain only from the locus tag and parasite line
T1 sequence (Q8I298 144-466): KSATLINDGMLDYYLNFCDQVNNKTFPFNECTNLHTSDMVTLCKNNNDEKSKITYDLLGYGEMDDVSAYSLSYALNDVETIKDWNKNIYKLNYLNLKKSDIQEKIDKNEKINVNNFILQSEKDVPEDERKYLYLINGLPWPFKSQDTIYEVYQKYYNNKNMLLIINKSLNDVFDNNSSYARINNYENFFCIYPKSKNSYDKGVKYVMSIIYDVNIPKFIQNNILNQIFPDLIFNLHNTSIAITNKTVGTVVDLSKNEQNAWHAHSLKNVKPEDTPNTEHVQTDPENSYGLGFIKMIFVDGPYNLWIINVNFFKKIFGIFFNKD
Nature of the assay: […]-phosphatidylcholine transfer from donor to acceptor vesicles. The conditions noted are these: pH 7.4, 37 °C, 30 min; 25 μg/ml protein; labelled compound (trace in phosphatidylcholine vesicles). In kind it is biochemical.

Assay [2] addresses T2, truncated PFA0210c (Trunc.) (Plasmodium falciparum, UniProt Q8I298).
T2 construct: gene PF3D7_0104200; residues 144-418 (C-terminal 48 residues removed); N-terminal MBP and C-terminal His6 kept; E. coli BL21(DE3)
The description is as above. In kind it is biochemical. The conditions noted are these: pH 7.4, 37 °C, 30 min; 25 μg/ml protein; labelled compound (trace in phosphatidylcholine vesicles).

For the molecule `CCCCCCCCCCCCCCCC(=O)OC[C@H](COP(=O)([O-])OCC[N+](C)(C)C)OC(=O)CCCCCCCCCCCCCCC` [L-α-dipalmitoyl-phosphatidylcholine], the phospholipid transfer activity entry in assay [1] was “measures the transfer of radiolabeled phosphatidylcholine from a small population of donor vesicles”; in assay [2], “All the truncated proteins showed higher phospholipid transfer activity than the full-length protein”.
